Patent US20250034216A1, “STEREOSELECTIVE COVALENT LIGANDS FOR ONCOGENIC AND IMMUNOLOGICAL PROTEINS” (The Scripps Research Institute, priority 2021, published 2025)

Experiments:
Test in all cases: IA-DTB cysteine engagement
Format in all cases: binding
Details in all cases: 22Rv1 cells, 20 μM probe, 1 h, relative to DMSO
[1] = target: T1, PTGES2_C110 (Homo sapiens, UniProt Q9H7Z7)
T1 construct: endogenous in cells; host or cells: 22Rv1
Protocol: (§1) Sample preparation: Cells (adherent: 15 cm dishes, suspension: 2 million cells/mL) were treated with electrophilic probes in situ for indicated times and concentrations, washed with ice-cold PBS, and flash frozen in liquid nitrogen. Cell pellets were lysed by sonication (8 pulses, 40% power) in 500 μL ice-cold PBS supplemented with cOmplete protease inhibitors (1 tablet/10 mL of PBS). Whole cell lysates protein content was measured using a standard DC protein assay (Bio-Rad) and 500 μL (2 mg/mL protein content) were treated with 5 μL of 10 mM 1A-DTB (in DMSO) for 1 h at ambient temperature with occasional vortexing. Samples were methanol-chloroform precipitated with the addition of 500 μL ice-cold MeOH and 200 μL CHCl3, vortexed, and centrifuged (10 min, 10,000 g). Without disrupting the protein disk, both top and bottom layers were aspirated and the protein disk was washed with 1 mL ice-cold MeOH and centrifuged (10 min, 10,000 g). The pellets were allowed to air dry, and then re-suspended in 90 μL buffer (9 M urea, 10 mM DTT, 50 mM TEAB pH 8.5). Samples were reduced by heating at 65 C for 20 minutes and water bath sonicated as needed to resuspend the protein pellets, followed by alkylation via addition of 10 μL (500 mM) iodoacetamide and incubated at 37 C for 30 min with shaking. Samples were briefly centrifuged, and probe sonicated once more to ensure complete resuspension, and then diluted with 300 μL buffer (50 mM TEAB pH 8.5) to reach final concentration of 2 M urea. Trypsin (4 μL of 0.25 μg/μL in trypsin resuspension buffer with 25 mM CaCl2)) was added to each sample and digested at 37 C for 2 h to overnight. Digested samples were then diluted with 300 μL wash buffer (50 mM TEAB pH 8.5, 150 mM NaCl, 0.2% NP-40) containing streptavidin-agarose beads (50 μL of 50% slurry in wash buffer) and were rotated at room temperature for 2 hours. Enriched samples were pelleted by centrifugation (2000 g, 2 min) and transferred to BioSpin columns and washed (3×1 mL wash buffer, 3×1 mL PBS, 3×1 mL water). Enriched peptides were eluted by 300 μL 50% acetonitrile with 0.1% formic acid and eluate was evaporated to dryness via speedvac. IA-DTB labeled and enriched peptides were resuspended in 100 μL EPPS buffer (200 mM, pH 8.0) with 30% acetonitrile, vortexed, and water bath sonicated. Samples were TMT labeled with 3 μL of corresponding TMT tag (5 mg tag resuspended in 256 μL acetonitrile), vortexed, and incubated at room temperature for 1 hour. TMT labeling was quenched with the addition of hydroxylamine (5 μL 5% solution in H2O) and incubated for 15 minutes at room temperature. Samples were then acidified with 5 μL formic acid, combined and dried using a SpeedVac. Samples were desalted via Sep-Pak and then high pH fractionated.
(§2) Data processing: Cysteine engagement ratios (probe vs DMSO) were calculated for each peptide-spectra match by dividing each TMT reporter ion intensity by the average intensity for the channels corresponding to DMSO treatment. Peptide-spectra matches were then grouped based on protein ID and residue number (e.g., PSME1 C22), excluding peptides with summed reporter ion intensities for the DMSO channels <10,000, coefficient of variation for DMSO channels >0.5, and non-tryptic peptide sequences. TMT reporter ion intensities were normalized to the median summed signal intensity across channels.
(§3) Filtering of cysteine data: Replicates were combined based on cell line and treatment condition (probe, concentration, duration) by averaging cysteine engagement ratios across all experiments.

[2] = target: T2, PLPPR2_C207 (Homo sapiens, UniProt Q96GM1)
T2 construct: endogenous in cells; host or cells: 22Rv1
T2 sequence (Q96GM1 1-343): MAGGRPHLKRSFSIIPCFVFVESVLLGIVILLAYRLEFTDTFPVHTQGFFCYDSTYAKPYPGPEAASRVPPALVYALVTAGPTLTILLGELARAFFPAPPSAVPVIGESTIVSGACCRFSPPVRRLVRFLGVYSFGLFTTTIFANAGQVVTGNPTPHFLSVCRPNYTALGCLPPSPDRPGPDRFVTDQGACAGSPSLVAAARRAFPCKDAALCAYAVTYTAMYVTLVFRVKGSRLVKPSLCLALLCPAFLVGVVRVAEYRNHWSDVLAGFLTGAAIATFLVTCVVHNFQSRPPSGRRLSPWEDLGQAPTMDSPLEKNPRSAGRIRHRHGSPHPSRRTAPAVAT
Protocol: as §1, §2, §3

[3] = target: T3, ITPR2_C292 (Homo sapiens, UniProt Q14571)
T3 construct: endogenous in cells; host or cells: 22Rv1
Protocol: as §1, §2, §3

[4] = target: T4, DHRS13_C174 (Homo sapiens, UniProt Q6UX07)
T4 construct: endogenous in cells; host or cells: 22Rv1
T4 sequence (Q6UX07 26-377): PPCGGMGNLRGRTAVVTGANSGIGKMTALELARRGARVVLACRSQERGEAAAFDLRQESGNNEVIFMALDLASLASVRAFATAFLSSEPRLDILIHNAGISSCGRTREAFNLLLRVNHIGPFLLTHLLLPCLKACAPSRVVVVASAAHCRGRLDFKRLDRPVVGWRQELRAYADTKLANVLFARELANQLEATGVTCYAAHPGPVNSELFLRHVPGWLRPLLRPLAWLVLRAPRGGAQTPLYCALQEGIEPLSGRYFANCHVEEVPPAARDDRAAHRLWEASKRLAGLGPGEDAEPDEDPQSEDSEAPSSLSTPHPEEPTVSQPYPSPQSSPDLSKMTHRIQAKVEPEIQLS
Protocol: as §1, §2, §3

T1 sequence (Q9H7Z7 whole entry): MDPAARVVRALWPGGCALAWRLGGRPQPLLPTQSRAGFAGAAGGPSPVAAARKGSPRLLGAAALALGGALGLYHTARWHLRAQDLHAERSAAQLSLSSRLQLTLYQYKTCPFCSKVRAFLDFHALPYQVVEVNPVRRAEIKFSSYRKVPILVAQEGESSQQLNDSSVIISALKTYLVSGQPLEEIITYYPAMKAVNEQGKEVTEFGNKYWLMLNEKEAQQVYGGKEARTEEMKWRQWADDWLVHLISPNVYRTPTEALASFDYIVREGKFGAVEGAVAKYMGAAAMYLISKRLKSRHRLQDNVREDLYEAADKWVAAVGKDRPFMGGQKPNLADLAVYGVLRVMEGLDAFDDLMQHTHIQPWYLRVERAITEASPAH
T3 sequence (Q14571 whole entry): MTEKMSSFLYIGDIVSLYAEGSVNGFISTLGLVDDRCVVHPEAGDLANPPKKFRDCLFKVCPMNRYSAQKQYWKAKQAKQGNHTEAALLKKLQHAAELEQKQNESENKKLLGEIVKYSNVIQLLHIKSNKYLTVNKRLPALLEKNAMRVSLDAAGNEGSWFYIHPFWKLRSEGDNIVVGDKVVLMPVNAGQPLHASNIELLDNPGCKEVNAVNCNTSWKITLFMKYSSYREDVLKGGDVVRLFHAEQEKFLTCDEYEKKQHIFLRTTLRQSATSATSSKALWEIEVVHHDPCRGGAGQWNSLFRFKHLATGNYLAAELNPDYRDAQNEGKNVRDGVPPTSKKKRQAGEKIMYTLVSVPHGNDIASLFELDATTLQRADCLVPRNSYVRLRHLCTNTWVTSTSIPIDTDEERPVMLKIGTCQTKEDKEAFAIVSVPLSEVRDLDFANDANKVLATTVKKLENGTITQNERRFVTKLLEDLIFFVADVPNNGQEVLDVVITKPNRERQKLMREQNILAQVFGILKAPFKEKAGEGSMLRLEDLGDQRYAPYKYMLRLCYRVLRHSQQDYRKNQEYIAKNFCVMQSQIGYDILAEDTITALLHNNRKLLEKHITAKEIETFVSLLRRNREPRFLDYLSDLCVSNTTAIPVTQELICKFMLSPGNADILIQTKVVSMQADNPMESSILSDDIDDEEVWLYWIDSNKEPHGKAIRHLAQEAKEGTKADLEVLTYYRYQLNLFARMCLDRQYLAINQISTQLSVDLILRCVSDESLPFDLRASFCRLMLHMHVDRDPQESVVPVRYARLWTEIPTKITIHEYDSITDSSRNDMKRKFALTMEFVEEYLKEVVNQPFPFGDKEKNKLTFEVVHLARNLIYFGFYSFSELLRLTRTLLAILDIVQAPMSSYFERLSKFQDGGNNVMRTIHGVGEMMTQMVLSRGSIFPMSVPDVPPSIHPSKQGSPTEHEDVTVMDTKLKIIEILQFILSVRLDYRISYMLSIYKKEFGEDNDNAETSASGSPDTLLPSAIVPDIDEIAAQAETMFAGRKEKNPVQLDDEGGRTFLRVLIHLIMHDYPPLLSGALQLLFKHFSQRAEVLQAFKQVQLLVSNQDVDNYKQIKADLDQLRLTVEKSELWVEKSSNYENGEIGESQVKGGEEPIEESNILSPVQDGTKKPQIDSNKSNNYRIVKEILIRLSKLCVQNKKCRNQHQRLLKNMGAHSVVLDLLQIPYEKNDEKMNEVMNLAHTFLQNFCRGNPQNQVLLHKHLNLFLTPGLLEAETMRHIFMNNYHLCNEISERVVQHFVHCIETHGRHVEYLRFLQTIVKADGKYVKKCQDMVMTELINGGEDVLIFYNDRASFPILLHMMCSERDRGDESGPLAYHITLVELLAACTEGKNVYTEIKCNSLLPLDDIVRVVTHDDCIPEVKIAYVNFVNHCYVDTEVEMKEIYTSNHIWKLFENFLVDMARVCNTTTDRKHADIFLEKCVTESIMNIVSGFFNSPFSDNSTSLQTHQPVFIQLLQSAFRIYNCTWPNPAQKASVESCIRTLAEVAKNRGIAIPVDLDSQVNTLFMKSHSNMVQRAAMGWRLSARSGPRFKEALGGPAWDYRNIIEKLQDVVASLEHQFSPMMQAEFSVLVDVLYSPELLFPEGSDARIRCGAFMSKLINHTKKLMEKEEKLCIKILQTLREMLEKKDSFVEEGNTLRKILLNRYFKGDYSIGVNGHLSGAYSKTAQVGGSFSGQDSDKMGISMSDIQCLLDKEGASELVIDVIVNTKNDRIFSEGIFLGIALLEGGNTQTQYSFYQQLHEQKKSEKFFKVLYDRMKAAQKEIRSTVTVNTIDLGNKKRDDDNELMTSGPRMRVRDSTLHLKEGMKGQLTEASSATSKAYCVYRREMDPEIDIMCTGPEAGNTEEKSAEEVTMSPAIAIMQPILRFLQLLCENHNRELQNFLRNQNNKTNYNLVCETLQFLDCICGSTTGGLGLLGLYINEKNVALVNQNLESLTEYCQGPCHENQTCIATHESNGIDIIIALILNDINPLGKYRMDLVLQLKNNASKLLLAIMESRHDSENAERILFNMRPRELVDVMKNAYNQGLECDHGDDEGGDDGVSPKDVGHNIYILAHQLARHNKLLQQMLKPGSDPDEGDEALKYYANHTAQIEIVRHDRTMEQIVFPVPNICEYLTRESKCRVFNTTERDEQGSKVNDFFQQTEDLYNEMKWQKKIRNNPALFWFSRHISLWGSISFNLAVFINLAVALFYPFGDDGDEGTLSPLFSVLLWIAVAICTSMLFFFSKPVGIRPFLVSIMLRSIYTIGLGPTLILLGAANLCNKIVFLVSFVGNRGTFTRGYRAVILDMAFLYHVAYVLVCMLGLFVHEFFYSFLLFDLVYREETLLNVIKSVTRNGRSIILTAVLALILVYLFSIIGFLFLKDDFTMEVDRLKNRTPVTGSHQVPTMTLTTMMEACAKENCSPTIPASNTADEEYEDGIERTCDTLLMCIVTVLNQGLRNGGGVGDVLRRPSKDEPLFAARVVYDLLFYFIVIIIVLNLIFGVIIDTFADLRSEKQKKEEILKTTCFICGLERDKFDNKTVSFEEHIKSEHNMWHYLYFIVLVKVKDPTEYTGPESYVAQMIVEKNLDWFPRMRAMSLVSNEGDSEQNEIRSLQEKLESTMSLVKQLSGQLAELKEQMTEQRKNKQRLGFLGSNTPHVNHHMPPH

% engagement PTGES2_C110 [1] [%] | % engagement PLPPR2_C207 [2] [%] | % engagement ITPR2_C292 [3] [%] | % engagement DHRS13_C174 [4] [%] | SMILES
31.25 | 30.5 | 24.5 | 60.25 | C=CC(=O)N1C[C@@H](c2ccc(Br)cc2)[C@H]1C(=O)Nc1cccc2cccnc12 [MY-1A, (2S,3R)-1-acryloyl-3-(4-bromophenyl)-N-(quinolin-8-yl)azetidine-2-carboxamide]
38.5 | 31 | 70 | 69.75 | C=CC(=O)N1C[C@H](c2ccc(Br)cc2)[C@@H]1C(=O)Nc1cccc2cccnc12 [MY-1B, (2R,3S)-1-acryloyl-3-(4-bromophenyl)-N-(quinolin-8-yl)azetidine-2-carboxamide]
89.25 | 71 | 50.5 | 61.75 | C=CC(=O)N1C[C@H](c2ccc(Br)cc2)[C@H]1C(=O)Nc1cccc2cccnc12 [MY-3B, (2S,3S)-1-acryloyl-3-(4-bromophenyl)-N-(quinolin-8-yl)azetidine-2-carboxamide]
69.75 | 46.5 | 48.5 | 42 | C=CC(=O)N1C[C@H](c2ccc(Br)cc2)[C@H]1C(=O)Nc1cccc2cccnc12 [MY-3A, (2S,3S)-1-acryloyl-3-(4-bromophenyl)-N-(quinolin-8-yl)azetidine-2-carboxamide]
